Values quoted from earlier work in US11058735B2, “Formulations containing pomegranate seed oil, rosa canina fruit oil and inula viscosa oleoresin or extract” (POMEGA, INC., priority 2014, dated 2021).

Settings: compared with grape seed extract, background statement

CCCC\C=C/C=C/C=C\CCCCCCCC(=O)O [Punicic acid]
antioxidant power relative to grape seed extract: approximately 10 times
